Reference: ChEMBL document CHEMBL1133320, “Inhibition of the ras-dependent mitogenic pathway by phosphopeptide prodrugs with antiproliferative properties” (Bioorg Med Chem Lett, 2000)
Numbered stars: 1 amine (or outer) side, 2 acyl side, 3 side chain; on linkers, the order of the positions; unused ones are H or OH. Square brackets hold non-standard residues; d marks the D form. Peptide text beside a SMILES is read from it. ξ: configuration not given here. X2 = CC(C)(C)C(=O)SCCOP(=O)(OCCSC(=O)C(C)(C)C)Oc1ccc(C[C@H](N[*:1])C(=O)[*:2])cc1; X1 = CC(=O)SCCOP(=O)(OCCSC(C)=O)Oc1ccc(C[C@H](N[*:1])C(=O)[*:2])cc1; F2Pmp = N[C@@H](Cc1ccc(C(F)(F)P(=O)(O)O)cc1)C(=O)O; Pmp = N[C@@H](Cc1ccc(CP(=O)(O)O)cc1)C(=O)O; pY = N[C@@H](Cc1ccc(OP(=O)(O)O)cc1)C(=O)O; ξP = O=C(O)C1CCCN1

Assays:
[1] = target: T1, Growth factor receptor-bound protein 2 (Homo sapiens, UniProt P62993); experiment: Dissociation constant of compound was determined from affinity of compound towards Growth factor receptor bound protein 2 measured by fluorescence
T1 sequence (P62993 whole entry): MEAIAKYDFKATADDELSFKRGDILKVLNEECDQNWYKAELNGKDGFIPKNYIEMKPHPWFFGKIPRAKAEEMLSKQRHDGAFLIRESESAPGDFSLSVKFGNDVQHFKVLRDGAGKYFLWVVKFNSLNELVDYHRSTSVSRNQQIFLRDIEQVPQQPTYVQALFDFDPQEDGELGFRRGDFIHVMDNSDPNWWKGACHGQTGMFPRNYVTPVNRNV

[2] = target: T1, Growth factor receptor-bound protein 2; experiment: Dissociation constant of compound was determined from affinity of compound towards Growth factor receptor bound protein 2 measured by fluorescence; Non-detectable

SMILES	Kd [1]	Kd [2]
CC(C)[C@H](NC(=O)[C@H](CC(N)=O)NC(=O)[C@@H](NC(=O)[C@H](Cc1ccc(OP(=O)(O)O)cc1)NC(=O)[C@H](CO)NC(=O)[C@@H]1CCCN1)C(C)C)C(=O)N[C@@H](CCC(N)=O)C(=O)N[C@@H](CC(N)=O)C(=O)O (H-PS[pY]VNVQN-OH)	18 nM	–
CC(=O)N1CCC[C@H]1C(=O)N[C@@H](Cc1ccccc1)C(=O)N[C@@H](Cc1ccc(OP(=O)(OCCSC(=O)C(C)(C)C)OCCSC(=O)C(C)(C)C)cc1)C(=O)N[C@H](C(=O)N[C@@H](CC(N)=O)C(=O)N[C@H](C(=O)N1CCCC1C(N)=O)C(C)C)C(C)C (stereo partly specified) (Ac-PF[X2]VNV[ξP]-NH2)	–	Not Active
CC(=O)SCCOP(=O)(OCCSC(C)=O)Oc1ccc(C[C@H](NC(=O)[C@H](Cc2ccccc2)NC(=O)[C@@H]2CCCN2C(C)=O)C(=O)N[C@H](C(=O)N[C@@H](CC(N)=O)C(=O)N[C@H](C(=O)N2CCC[C@H]2C(N)=O)C(C)C)C(C)C)cc1 (Ac-PF[X1]VNVP-NH2)	–	Not Active
CC(C)[C@H](NC(=O)[C@H](CC(N)=O)NC(=O)[C@@H](NC(=O)[C@H](Cc1ccc(CP(=O)(O)O)cc1)NC(=O)[C@H](CO)NC(=O)[C@@H]1CCCN1)C(C)C)C(=O)N[C@@H](CCC(N)=O)C(=O)N[C@@H](CC(N)=O)C(=O)O (H-PS[Pmp]VNVQN-OH)	260 nM	–
CC(C)[C@H](NC(=O)[C@H](CC(N)=O)NC(=O)[C@@H](NC(=O)[C@H](Cc1ccc(C(F)(F)P(=O)(O)O)cc1)NC(=O)[C@H](CO)NC(=O)[C@@H]1CCCN1)C(C)C)C(=O)N[C@@H](CCC(N)=O)C(=O)N[C@@H](CC(N)=O)C(=O)O (H-PS[F2Pmp]VNVQN-OH)	200 nM	–
CC(=O)N1CCC[C@H]1C(=O)N[C@@H](Cc1ccccc1)C(=O)N[C@@H](Cc1ccc(OP(=O)(O)O)cc1)C(=O)N[C@H](C(=O)N[C@@H](CC(N)=O)C(=O)N[C@H](C(=O)N1CCC[C@H]1C(N)=O)C(C)C)C(C)C (Ac-PF[pY]VNVP-NH2)	30 nM	–
